Results reported in patent US12077503B2, “Substituted cyclic amides and their use as herbicides” (FMC CORPORATION, priority 2015, dated 2024).
Where two headings read alike, the source gives them in different places.

Experiments:
Assay type in all cases: in vivo
[1] = tested on: wheat (Triticum aestivum); experiment: Test A postemergence; conditions: Triticum aestivum, post-emergence, 240 h, read-out: Plant response rating, Wheat; for plant injury at 125 g/ha: 125 g ai/ha, postemergence, visual rating after approx. 10 d, 0 to 100 scale (0 no effect, 100 complete control); for plant injury at 500 g/ha: Postemergence, 500 g ai/ha, 0 to 100 scale where 0 is no effect and 100 is complete control
How it was run: (§1)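 Visual injury scores from 0, no effect, to 100, complete control, were assigned versus untreated controls roughly 10 d after treatment in the greenhouse. Test chemicals, formulated with surfactant in a non-phytotoxic solvent, were applied to planted seeds as a preemergence soil spray or postemergence to one- to two-leaf plants 2 to 10 cm tall, in loam–sand soil.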

[2] = tested on: Galium (catchweed bedstraw, Galium aparine); experiment: Test A postemergence; conditions: Galium, post-emergence, 240 h, read-out: Plant response rating, Galium; for pest or weed control at 125 g/ha: 125 g ai/ha, postemergence, visual rating after approx. 10 d, 0 to 100 scale (0 no effect, 100 complete control); for pest or weed control at 500 g/ha: Postemergence, 500 g ai/ha, 0 to 100 scale where 0 is no effect and 100 is complete control
How it was run: as §1

[3] = tested on: ragweed (common ragweed, Ambrosia elatior); experiment: Test A postemergence; conditions: Ambrosia artemisiifolia, post-emergence, 240 h, read-out: Plant response rating, Ragweed; for pest or weed control at 125 g/ha: 125 g ai/ha, postemergence, visual rating after approx. 10 d, 0 to 100 scale (0 no effect, 100 complete control); for pest or weed control at 500 g/ha: Postemergence, 500 g ai/ha, 0 to 100 scale where 0 is no effect and 100 is complete control
How it was run: as §1

[4] = tested on: ryegrass, Italian (Italian ryegrass, Lolium multiflorum); experiment: Test A postemergence; conditions: Lolium multiflorum, post-emergence, 240 h, read-out: Plant response rating, Ryegrass, Italian; for pest or weed control at 125 g/ha: 125 g ai/ha, postemergence, visual rating after approx. 10 d, 0 to 100 scale (0 no effect, 100 complete control); for pest or weed control at 500 g/ha: Postemergence, 500 g ai/ha, 0 to 100 scale where 0 is no effect and 100 is complete control
How it was run: as §1

Kochia (Kochia scoparia) [5] = experiment: Test A postemergence; conditions: Bassia scoparia, post-emergence, 240 h, read-out: Plant response rating, Kochia; for pest or weed control at 125 g/ha: 125 g ai/ha, postemergence, visual rating after approx. 10 d, 0 to 100 scale (0 no effect, 100 complete control); for pest or weed control at 500 g/ha: Postemergence, 500 g ai/ha, 0 to 100 scale where 0 is no effect and 100 is complete control
How it was run: as §1

[6] = tested on: giant foxtail (Setaria faberii); experiment: Test A preemergence; conditions: Setaria faberi, pre-emergence, 240 h; for pest or weed control at 125 g/ha: 125 g ai/ha, visual injury after approximately 10 d, 0 to 100 scale where 0 is no effect and 100 is complete control; for pest or weed control at 500 g/ha: 500 g ai/ha
How it was run: as §1

[7] = tested on: barnyardgrass (Echinochloa crus-galli); experiment: Test A preemergence; conditions: Echinochloa crus-galli, pre-emergence, 240 h; for pest or weed control at 125 g/ha: 125 g ai/ha, visual injury after approximately 10 d, 0 to 100 scale where 0 is no effect and 100 is complete control; for pest or weed control at 500 g/ha: 500 g ai/ha
How it was run: as §1

[8] = tested on: ragweed (common ragweed, Ambrosia elatior); experiment: Test A preemergence; conditions: Ambrosia artemisiifolia, pre-emergence, 240 h; for pest or weed control at 125 g/ha: 125 g ai/ha, visual injury after approximately 10 d, 0 to 100 scale where 0 is no effect and 100 is complete control; for pest or weed control at 500 g/ha: 500 g ai/ha
How it was run: as §1

[9] = tested on: ryegrass, Italian (Italian ryegrass, Lolium multiflorum); experiment: Test A preemergence; conditions: Lolium multiflorum, pre-emergence, 240 h; for pest or weed control at 125 g/ha: 125 g ai/ha, visual injury after approximately 10 d, 0 to 100 scale where 0 is no effect and 100 is complete control; for pest or weed control at 500 g/ha: 500 g ai/ha
How it was run: as §1

Kochia (Kochia scoparia) [10] = experiment: Test A preemergence; conditions: Bassia scoparia, pre-emergence, 240 h; for pest or weed control at 125 g/ha: 125 g ai/ha, visual injury after approximately 10 d, 0 to 100 scale where 0 is no effect and 100 is complete control; for pest or weed control at 500 g/ha: 500 g ai/ha
How it was run: as §1

[11] = tested on: pigweed (Amaranthus retroflexus); experiment: Test A preemergence; conditions: Amaranthus retroflexus, pre-emergence, 240 h; for pest or weed control at 125 g/ha: 125 g ai/ha, visual injury after approximately 10 d, 0 to 100 scale where 0 is no effect and 100 is complete control; for pest or weed control at 500 g/ha: 500 g ai/ha
[12] = tested on: barnyardgrass (Echinochloa crus-galli); experiment: Test B flooded paddy test; conditions: Flood, 250 g ai/ha; 0 to 100 scale where 0 is no effect and 100 is complete control; 13 to 15 d
How it was run: (§2)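 Percent control, visually estimated after 13–15 d in the greenhouse on a 0–100 basis, compares treated pots with untreated ones; compound was put into paddy water 3 cm above the soil when plants had two leaves.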

[13] = tested on: sedge, umbrella (small-flower umbrella sedge, Cyperus difformis); experiment: Test B flooded paddy test; conditions: Flood, 250 g ai/ha; 0 to 100 scale where 0 is no effect and 100 is complete control; 13 to 15 d
How it was run: as §2

rice (Oryra sativa) = experiment: Test B flooded paddy test; conditions: Flood, 250 g ai/ha; 0 to 100 scale where 0 is no effect and 100 is complete control; 13 to 15 d
How it was run: as §2

[14] = tested on: ducksalad (Heteranthera limosa); experiment: Test B flooded paddy test; conditions: Flood, 250 g ai/ha; 0 to 100 scale where 0 is no effect and 100 is complete control; 13 to 15 d
How it was run: as §2

[15] = Preemergence, read-out: Plant response rating, Foxtail, Giant
[16] = Preemergence, read-out: Plant response rating, Barnyardgrass
[17] = Preemergence, read-out: Plant response rating, Ragweed
[18] = Preemergence, read-out: Plant response rating, Ryegrass, Italian
[19] = Preemergence, read-out: Plant response rating, Kochia
[20] = Preemergence, read-out: Plant response rating, Pigweed

SMILES | plant injury at 125 g/ha [1] [%] | plant injury at 500 g/ha [1] [%] | pest or weed control at 125 g/ha [2] [%] | pest or weed control at 500 g/ha [2] [%] | pest or weed control at 125 g/ha [3] [%] | pest or weed control at 500 g/ha [3] [%] | pest or weed control at 125 g/ha [4] [%] | pest or weed control at 500 g/ha [4] [%] | pest or weed control at 125 g/ha (Kochia (Kochia scoparia) [5]) [%] | pest or weed control at 500 g/ha (Kochia (Kochia scoparia) [5]) [%] | pest or weed control at 125 g/ha [6, 15] [%] | pest or weed control at 125 g/ha [7, 16] [%] | pest or weed control at 125 g/ha [8, 17] [%] | pest or weed control at 125 g/ha [9, 18] [%] | pest or weed control at 125 g/ha (Kochia (Kochia scoparia) [10]; [19]) [%] | pest or weed control at 125 g/ha [11, 20] [%] | Plant response rating, Barnyardgrass [12] | Plant response rating, Sedge, Umbrella [13] | Plant response rating, Rice (rice (Oryra sativa)) | Plant response rating, Ducksalad [14] | also measured
CN1C[C@H](c2ccc(F)c(F)c2)[C@@H](C(=O)Nc2ccccc2F)C1=O [Compound 596, (3S,4S)-4-(3,4-difluorophenyl)-N-(2-fluorophenyl)-1-methyl-2-oxo-3-pyrrolidinecarboxamide] | 0 | 50 | 30 | 50 | 0 | 0 | 0 | 40 | 40 | 60 | 100 | 90 | 0 | 40 | 20 | 0 | 95 | 0 | 0 | 100 | pest or weed control at 500 g/ha ([6]; Preemergence, visual injury approx. 10 d, read-out: Foxtail, Giant plant response rating (0 to 100 scale, 0 is no effect, 100 is complete control)): 100%; pest or weed control at 500 g/ha ([7]; Preemergence, visual injury approx. 10 d, read-out: Barnyardgrass plant response rating (0 to 100 scale, 0 is no effect, 100 is complete control)): 100%; pest or weed control at 500 g/ha ([8]; Preemergence, visual injury approx. 10 d, read-out: Ragweed plant response rating (0 to 100 scale, 0 is no effect, 100 is complete control)): 20%; pest or weed control at 500 g/ha ([9]; Preemergence, visual injury approx. 10 d, read-out: Ryegrass, Italian plant response rating (0 to 100 scale, 0 is no effect, 100 is complete control)): 50%; pest or weed control at 500 g/ha (Kochia (Kochia scoparia) [10]; Preemergence, visual injury approx. 10 d, read-out: Kochia plant response rating (0 to 100 scale, 0 is no effect, 100 is complete control)): 70%; pest or weed control at 500 g/ha ([11]; Preemergence, visual injury approx. 10 d, read-out: Pigweed plant response rating (0 to 100 scale, 0 is no effect, 100 is complete control)): 40%
CN1C[C@H](c2ccc(C(F)(F)F)cc2)[C@@H](C(=O)Nc2cccc(F)c2F)C1=O [Compound 623, (3S,4S)—N-(2,3-difluorophenyl)-1-methyl-2-oxo-4-[4-(trifluoromethyl)phenyl]-3-pyrrolidinecarboxamide] | 40 | 70 | 50 | 60 | 20 | 0 | 30 | 60 | 40 | 70 | 90 | 90 | 80 | 80 | 60 | 80 | 40 | 0 | 0 | 50 | pest or weed control at 500 g/ha ([6]; preemergence, 0 to 100 scale, 0 = no effect, 100 = complete control, read-out: Plant response rating, Foxtail, Giant): 90%; pest or weed control at 500 g/ha ([7]; preemergence, 0 to 100 scale, 0 = no effect, 100 = complete control, read-out: Plant response rating, Barnyardgrass): 90%; pest or weed control at 500 g/ha ([8]; preemergence, 0 to 100 scale, 0 = no effect, 100 = complete control, read-out: Plant response rating, Ragweed): 80%; pest or weed control at 500 g/ha ([9]; preemergence, 0 to 100 scale, 0 = no effect, 100 = complete control, read-out: Plant response rating, Ryegrass, Italian): 90%; pest or weed control at 500 g/ha (Kochia (Kochia scoparia) [10]; preemergence, 0 to 100 scale, 0 = no effect, 100 = complete control, read-out: Plant response rating, Kochia): 70%; pest or weed control at 500 g/ha ([11]; preemergence, 0 to 100 scale, 0 = no effect, 100 = complete control, read-out: Plant response rating, Pigweed): 80%
